Measurements as given in patent publication US5625043A, “Anthracyclines with unusually high activity against cells resistant to doxorubicin and its analogs” (Priebe; Waldemar, priority 1995, dated 1997).
pIC50: −log10 of the molar value.

Columns and labels:
J774.2 cells = assay: Cytotoxicity against J774.2 cells; format: cell-based, murine; settings: Mus musculus, J774.2; read-out: ID50 (the source's name)
J7/A300 cells = assay: Cytotoxicity against AD 198-resistant J7/A300 cells; format: cell-based, murine
J7/40V cells = assay: Cytotoxicity against vinblastine-resistant J7/40V cells; format: cell-based, murine
purified DNA = settings: compared with anthracycline; cited from earlier work
RNA versus DNA synthesis = settings: compared with anthracycline; cited from earlier work
G2/M blockade = settings: compared with anthracycline; cited from earlier work
membrane = settings: compared with anthracycline; cited from earlier work
[1] = tested on: purified mammalian topoisomerase II; settings: cited from earlier work
DNA = settings: alkaline elution assays; cited from earlier work
[2] = tested on: cultured murine and human tumor cells; settings: compared with anthracycline; cited from earlier work
[3] = tested on: P388 and L1210 leukemic cells and B16-BL6 melanoma cells; settings: cited from earlier work
[4] = tested on: variant CCRF-CEM leukemic cells; settings: cited from earlier work
[5] = tested on: transplanted MDR L1210 cells; settings: cited from earlier work
AD 198^R cells = AD 198^R cells versus drug-sensitive cells; cited from earlier work
[6] = tested on: MDR J774.2 cells selected with vinblastine; settings: MDR J774.2 selected with vinblastine; cited from earlier work
P-gp = settings: not told; cited from earlier work

SMILES: CCCCC(=O)OCC(=O)[C@]1(O)Cc2c(O)c3c(c(O)c2[C@@H](O[C@H]2C[C@H](NCc4ccccc4)[C@H](O)[C@H](C)O2)C1)C(=O)c1c(OC)cccc1C3=O [AD 198]
- pIC50 (J774.2 cells): 7.31
- resistance of cell line to the selecting drug (J7/A300 cells; AD 198 resistant J7/A300 cells): 15 -fold
- RI J7/A300 (J7/A300 cells; J7/A300 versus J774.2): 15
- pIC50 (J7/A300 cells; Mus musculus, J7/A300, read-out: ID50 (the source's name)): 6.13
- RI J7/40V (J7/40V cells; J7/40V versus J774.2): 14
- pIC50 (J7/40V cells; Mus musculus, J7/40V, read-out: ID50 (the source's name)): 6.18
- binding to purified DNA (purified DNA): weaker binding to purified DNA
- inhibition of RNA versus DNA synthesis (RNA versus DNA synthesis): preferential inhibition of RNA versus DNA synthesis
- G2/M blockade (G2/M blockade): irreversible G2 /M blockade
- membrane lytic activity (membrane): pronounced membrane lytic activity
- inhibition of purified mammalian topoisomerase II [1]: lack of inhibition
- protein-associated DNA strand breaks (DNA): significant levels of protein-associated DNA strand breaks
- cytotoxicity [2]: enhanced cytotoxicity
- ability to circumvent MDR [3]: ability to circumvent MDR
- ability to circumvent MDR and resistance due to altered topoisomerase II activity [4]: ability to circumvent MDR
- efficacy in vivo [5]: limited efficacy
- intracellular level of AD 198 (AD 198^R cells): high levels of intracellular AD 198 similar to that of drug-sensitive cells
- cross-resistance [6]: cross-resistant to AD 198
- transport by P-gp from the cell (P-gp): inability of P-gp to transport AD 198 from the cell
